Counter-ions that a name gives are not always drawn. Like-named read-outs stand apart in the source and are kept apart here. Marks after values point to notes of the source that are not given here.
Assays:
Kunming mice [1] = assay: Acetic Acid Twisting Method in mice (antalgic effect); format: in vivo; settings: for antalgic: single dosage 20 mg/kg, acetic acid twisting, unit not given (method: inhibiting rate %); for inhibition in vivo at 10 mg/kg / inhibition in vivo at 20 mg/kg / inhibition in vivo at 40 mg/kg: Mus musculus
Kunming mice [2] = assay: Sedative effect: spontaneous activity of the mice recorded with AC power tube; format: in vivo; settings: single dosage 20 mg/kg, unit not given
Description: Kunming mice, clean class KM, purchased from Shanghai SLAC LABORATORY ANIMAL CO. LTD, breeding at general environment.
The compounds are formulated to solutions of 4 mg/ml, 2 mg/ml, and 1 mg/ml with water for injection. Animals in the control group and treatment group are all administered through subcutaneous injection at neck.
First of all, the mice in the treatment group are administrated with a solution of tested compounds (10 mg/kg, 20 mg/kg, 40 mg/kg) through subcutaneous injection at neck, the negative control group is administrated with physiological saline (20 ml/kg) orally, and the positive control group is administrated with Aspirin (20 ml/kg) orally. Each group is administrated with 10 ml/kg of 0.7% acetic acid via intraperitoneal injection (i.p.) after one hour. After 5 minutes, times of twisting response of each group of mice is recorded in 15 minutes, and twisting response inhibiting rate of each of the treatment groups is calculated according to the following equation: Inhibiting rate %=(average twisting times of negative control group−average twisting times of treated group)/average twisting times of negative control group×100% 6. A Sedative Effect is Evaluated by Using AC Power Tube to Record Spontaneous Activity of the Mice. 7. Testing the Antalgic and Sedative Effect of the Compounds with Single Dosage (20 mg/kg), See Table 2 for Details.

Kunming mice [3] = assay: Hot Plate Method in mice (antalgic effect); format: in vivo
mice [4] = settings: mouse, in vivo
[5] = test system: S. typhimurium TA97, TA98, TA100 and TA102; assay: Bacterial Reverse-Mutation Assay (Ames TS); format: cell-based
Source text: Strains: S. typhimurium TA97, TA98, TA100 and TA102.
Results: The assay included two parts: without S9 and with S9.

mice [6] = settings: daily for eight days; III-15 60 mg/kg oral gavage, Morphine 10 mg/kg PO; Hot Plate 15 minutes after each administration
mice [7] = assay: Jump test in mice (physical dependence, naloxone precipitated); settings: III-15 seven times in two days, 20-120 mg/kg PO, naloxone 2 mg/kg i.v. three hours after last dosing
[8] = Animal model studies, summary (oral absorption, therapeutic index); settings: summary statement
mice [9] = assay: Conditioned Place Preference test in mice (psychological dependence); settings: III-15 60 mg/kg oral gavage each day for six consecutive days
[10] = po, 10 mg/kg, gavage administration, mice, read-out: twisting response inhibiting rate (%)
[11] = po, 20 mg/kg, gavage administration, mice, read-out: twisting response inhibiting rate (%)
[12] = po, 40 mg/kg, gavage administration, mice, read-out: twisting response inhibiting rate (%)
[13] = Mus musculus, po, 1 h, 10 mg/kg, gavage administration, hot plate, read-out: Increasing rate of pain threshold (%)
[14] = Mus musculus, po, 1 h, 20 mg/kg, gavage administration, hot plate, read-out: Increasing rate of pain threshold (%)
[15] = sc, 10 mg/kg, subcutaneous injection at neck, mice, read-out: twisting response inhibiting rate (%)
[16] = sc, 20 mg/kg, subcutaneous injection at neck, mice, read-out: twisting response inhibiting rate (%)
[17] = sc, 40 mg/kg, subcutaneous injection at neck, mice, read-out: twisting response inhibiting rate (%)
[18] = Mus musculus, sc, 10 mg/kg, subcutaneous injection at neck, 1 hour after dosing, hot plate 55.5° C., read-out: Increasing rate of pain threshold (%)
[19] = Mus musculus, sc, 20 mg/kg, subcutaneous injection at neck, 1 hour after dosing, hot plate 55.5° C., read-out: Increasing rate of pain threshold (%)
[20] = Mus musculus, sc, 40 mg/kg, subcutaneous injection at neck, 1 hour after dosing, hot plate 55.5° C., read-out: Increasing rate of pain threshold (%)
[21] = sc, read-out: twisting response inhibiting rate (%)

Compound `CC(=O)Nc1ccc(CN2CCC(O)(CC(O)c3ccccc3)CC2)cc1.Cl` (centres unmarked) [Compound V-2, N-p-acetylaminobenzyl-4-(2-hydroxy-2-phenylethyl)-4-piperidinol hydrochloride] has an antalgic (Kunming mice [1]; mice) of 80 and a sedative (Kunming mice [2]) of 39.6.

`OC(CC1(O)CCN(C(c2ccccc2)c2ccccc2)CC1)c1ccccc1` (centres unmarked) [Compound V-3, N-diphenylmethyl-4-(2-hydroxy-2-phenylethyl)-4-piperidinol hydrochloride] gave an inhibition in vivo at 10 mg/kg (Kunming mice [1]; [10]) of 60.6%, an inhibition in vivo at 20 mg/kg (Kunming mice [1]; [11]) of 49.8% and an inhibition in vivo at 40 mg/kg (Kunming mice [1]; [12]) of 68.1%. The inhibition in vivo at 20 mg/kg (Kunming mice [1]; sc, read-out: antalgic) was 84%, the change in vivo at 10 mg/kg (Kunming mice [3]; [13]) was 64.1% and the change in vivo at 20 mg/kg (Kunming mice [3]; [14]) was 86.8%. For the same compound, the change in vivo at 40 mg/kg (Kunming mice [3]; Mus musculus, po, 1 h, 40 mg/kg, gavage administration, hot plate, read-out: Increasing rate of pain threshold (%)) was 136%.

With `O=C(CC1(O)CCN(Cc2ccccc2)CC1)c1ccccc1` [III-1, N-benzyl-4-benzoylmethyl-4-piperidinol hydrochloride] the inhibition in vivo at 20 mg/kg (Kunming mice [1]; sc, read-out: antalgic) was 62%, the inhibition in vivo at 10 mg/kg (Kunming mice [1]; [15]) was 73.3% and the inhibition in vivo at 20 mg/kg (Kunming mice [1]; [16]) was 59.4%. It also gave an inhibition in vivo at 40 mg/kg (Kunming mice [1]; [17]) of 91.1%, a change in vivo at 10 mg/kg (Kunming mice [3]; [18]) of 99.7% and a change in vivo at 20 mg/kg (Kunming mice [3]; [19]) of 89%. For the same compound, the change in vivo at 40 mg/kg (Kunming mice [3]; [20]) was 148%.

Work on `O=C(CC1(O)CCN(Cc2ccc(F)cc2)CC1)c1ccccc1` [III-3, N-p-fluorobenzyl-4-benzoylmethyl-4-piperidinol hydrochloride] yielded an inhibition in vivo at 20 mg/kg (Kunming mice [1]; sc, read-out: antalgic) of 76%, an inhibition in vivo at 10 mg/kg (Kunming mice [1]; [15]) of 69.4% and an inhibition in vivo at 20 mg/kg (Kunming mice [1]; [16]) of 77.2%. The inhibition in vivo at 40 mg/kg (Kunming mice [1]; [17]) was 71.5%, the change in vivo at 10 mg/kg (Kunming mice [3]; [18]) was 11.9% and the change in vivo at 20 mg/kg (Kunming mice [3]; [19]) was 18.5%. It also gave a change in vivo at 40 mg/kg (Kunming mice [3]; [20]) of 29.4%.

`O=C(CC1(O)CCN(Cc2ccc([N+](=O)[O-])cc2)CC1)c1ccccc1` [III-4, N-p-nitrobenzyl-4-benzoylmethyl-4-piperidinol hydrochloride] gave an inhibition in vivo at 20 mg/kg (Kunming mice [1]; sc, read-out: antalgic) of 100%, an inhibition in vivo at 10 mg/kg (Kunming mice [1]; [21]) of 100% and an inhibition in vivo at 20 mg/kg (Kunming mice [1]; [21]) of 100%. It also gave an inhibition in vivo at 40 mg/kg (Kunming mice [1]; [21]) of 100%, a change in vivo at 10 mg/kg (Kunming mice [3]; [18]) of 19.8% and a change in vivo at 20 mg/kg (Kunming mice [3]; [19]) of 6.47%. For the same compound, the change in vivo at 40 mg/kg (Kunming mice [3]; [20]) was 15.9%.

In the case of `Nc1ccc(CN2CCC(O)(CC(=O)c3ccccc3)CC2)cc1` [III-5, N-p-aminobenzyl-4-benzoylmethyl-4-piperidinol hydrochloride], the inhibition in vivo at 20 mg/kg (Kunming mice [1]; sc, read-out: antalgic) is reported as 100%, the inhibition in vivo at 10 mg/kg (Kunming mice [1]; [21]) is reported as 100% and the inhibition in vivo at 20 mg/kg (Kunming mice [1]; [21]) is reported as 100%. It also gave an inhibition in vivo at 40 mg/kg (Kunming mice [1]; [21]) of 100%, a change in vivo at 10 mg/kg (Kunming mice [3]; [18]) of 58.3% and a change in vivo at 20 mg/kg (Kunming mice [3]; [19]) of 75.6%. The change in vivo at 40 mg/kg (Kunming mice [3]; [20]) was 190%.

For `CC(=O)Nc1ccc(CN2CCC(O)(CC(=O)c3ccccc3)CC2)cc1.Cl` [III-6, N-p-acetylaminobenzyl-4-benzoylmethyl-4-piperidinol hydrochloride], the antalgic (Kunming mice [1]; mice) was 45 and the sedative (Kunming mice [2]) was 75.

Work on `O=C(CC1(O)CCN(C(c2ccccc2)c2ccccc2)CC1)c1ccccc1` [III-7, N-diphenylmethyl-4-benzoylmethyl-4-piperidinol hydrochloride] yielded an inhibition in vivo at 10 mg/kg (Kunming mice [1]; [10]) of 25.8%, an inhibition in vivo at 20 mg/kg (Kunming mice [1]; [11]) of 38% and an inhibition in vivo at 40 mg/kg (Kunming mice [1]; [12]) of 44.2%. For the same compound, the inhibition in vivo at 20 mg/kg (Kunming mice [1]; sc, read-out: antalgic) was 45%, the change in vivo at 10 mg/kg (Kunming mice [3]; [13]) was 82.8% and the change in vivo at 20 mg/kg (Kunming mice [3]; [14]) was 126%.

Compound `COc1ccc(CN2CCC(O)(CC(=O)c3ccccc3)CC2)cc1.Cl` [III-15, N-p-methoxybenzyl-4-benzoylmethyl-4-piperidinol hydrochloride] has an inhibition in vivo at 20 mg/kg (Kunming mice [1]; sc, read-out: antalgic) of 96%, an inhibition in vivo at 10 mg/kg (Kunming mice [1]; [21]) of 55.4% and an inhibition in vivo at 20 mg/kg (Kunming mice [1]; [21]) of 94.4%. The inhibition in vivo at 40 mg/kg (Kunming mice [1]; [21]) was 100%, the change in vivo at 10 mg/kg (Kunming mice [3]; [18]) was 77.7% and the change in vivo at 20 mg/kg (Kunming mice [3]; [19]) was 118%. The change in vivo at 40 mg/kg (Kunming mice [3]; [20]) was 260%, the “reversal of the antalgic effect by naloxone” value (mice [4]) was “does not reversed by naloxone” and the “Ames test result (revertants)” value ([5]; TA97, TA98, TA100, TA102, without S9 and with S9, all tested doses) was “negative”. The “inhibitory effect on bacterial growth” value ([5]; without S9 TA98 5000 μg/plate and with S9 TA97 5000 μg/plate, no inhibition at all other doses and strains) was “inhibitory effects on bacterial for the growth were seen”, the “change of pain threshold / antalgic effect on consecutive administration (drug resistance)” value (mice [6]) was “does not show weakening” and the “jumping behavior after naloxone (physical dependence)” value (mice [7]) was “no jumping behavior is observed”. For the same compound, the “absorption after oral administration” value [8] was “good absorption after oral administration” and the “Conditioned Place Preference (psychological dependence)” value (mice [9]) was “do not show Conditioned Place Preference”.

Work on `COc1ccc(C(C)N2CCC(F)(CC(=O)c3ccccc3)CC2)cc1` (centres unmarked) [IX-1, N-(1-(p-methoxyphenyl)ethyl)-4-benzoylmethyl-4-fluoropiperidine hydrochloride] yielded an inhibition in vivo at 20 mg/kg (Kunming mice [1]; sc, read-out: antalgic) of 76%, an inhibition in vivo at 10 mg/kg (Kunming mice [1]; [15]) of 60.4% and an inhibition in vivo at 20 mg/kg (Kunming mice [1]; [16]) of 68.7%. The inhibition in vivo at 40 mg/kg (Kunming mice [1]; [17]) was 81%, the change in vivo at 10 mg/kg (Kunming mice [3]; [18]) was 86.4% and the change in vivo at 20 mg/kg (Kunming mice [3]; [19]) was 109%. For the same compound, the change in vivo at 40 mg/kg (Kunming mice [3]; [20]) was 156%.

Work on `CC(c1ccc(N2CCOCC2)cc1)N1CCC(Cl)(CC(=O)c2ccccc2)CC1` (centres unmarked) [IX-7, N-(1-(4-morpholinophenyl)ethyl)-4-benzoylmethyl-4-chloropiperidine hydrochloride] yielded an inhibition in vivo at 20 mg/kg (Kunming mice [1]; sc, read-out: antalgic) of 72%, an inhibition in vivo at 10 mg/kg (Kunming mice [1]; [15]) of 66% and an inhibition in vivo at 20 mg/kg (Kunming mice [1]; [16]) of 60.3%. It also gave an inhibition in vivo at 40 mg/kg (Kunming mice [1]; [17]) of 76.4%, a change in vivo at 10 mg/kg (Kunming mice [3]; [18]) of 79.5% and a change in vivo at 20 mg/kg (Kunming mice [3]; [19]) of 101%. For the same compound, the change in vivo at 40 mg/kg (Kunming mice [3]; [20]) was 130%.

In the case of `CN1CC[C@]23c4c5ccc(O)c4O[C@H]2[C@@H](O)C=C[C@H]3[C@H]1C5` [Morphine, reference compound], the change in vivo at 2 mg/kg (Kunming mice [3]; Mus musculus, sc, 1 h, positive control, 2 mg/kg (remark), subcutaneous injection, hot plate, read-out: Increasing rate of pain threshold (%)) is reported as 202%, the “reversal of the antalgic effect by naloxone” value (mice [4]) is reported as “is reversed by naloxone” and the “change of pain threshold / antalgic effect on consecutive administration (drug resistance)” value (mice [6]) is reported as “reduces gradually starting from the second day of administration”. For the same compound, the “jumping behavior after naloxone (physical dependence)” value (mice [7]) was “obvious jumping behavior” and the “Conditioned Place Preference (psychological dependence)” value (mice [9]) was “show obvious Conditioned Place Preference”.

In the case of `COC1(CC(=O)c2ccccc2)CCN(Cc2ccc(NC(C)=O)cc2)CC1.Cl` [VIII-1, N-p-acetylaminobenzyl-4-benzoylmethyl-4-methoxylpiperidine hydrochloride], the “twisting response inhibiting rate (%)” value (Kunming mice [1]; 10 mg/kg, subcutaneous injection at neck, mice) is reported as 35.03* %, the “twisting response inhibiting rate (%)” value (Kunming mice [1]; 20 mg/kg, subcutaneous injection at neck, mice) is reported as 42.11% and the “twisting response inhibiting rate (%)” value (Kunming mice [1]; 40 mg/kg, subcutaneous injection at neck, mice) is reported as 57.69%. For the same compound, the antalgic (Kunming mice [1]; mice) was 64, the sedative (Kunming mice [2]) was 48 and the “Increasing rate of pain threshold (%)” value (Kunming mice [3]; 10 mg/kg, subcutaneous injection at neck, 1 hour after dosing, hot plate 55.5° C.) was 61.04%. For the same compound, the “Increasing rate of pain threshold (%)” value (Kunming mice [3]; 20 mg/kg, subcutaneous injection at neck, 1 hour after dosing, hot plate 55.5° C.) was 76.63* % and the “Increasing rate of pain threshold (%)” value (Kunming mice [3]; 40 mg/kg, subcutaneous injection at neck, 1 hour after dosing, hot plate 55.5° C.) was 105.20* %.
